Assay results from ChEMBL document CHEMBL1122601, “Novel tetracyclic spiropiperidines. 4. Synthesis and pharmacological evaluation of spiro- and 6,7-dihydrospiro[benzo[b]pyrrolo[3,2,1-jk][1,4]benzodiazepine-2 (1H),4'-piperidine]s” (1984).

Key:
Assay type in all cases: functional
Mus musculus [1] = assay: Antidepressant activity by injecting 20 mg/kg of compound intraperitoneally and measuring the ability to prevent tetrabenazine (TBZ) induced ptosis in mice.; conditions: ip, route intraperitoneal
Mus musculus [2] = assay: Analgesic activity by injecting compound subcutaneously and measuring the inhibition of phenyl-p-benzoquinone-induced writhing (PQW) in mice.; conditions: sc
Mus musculus [3] = assay: Antidepressant activity by injecting compound intraperitoneally and measuring the ability to prevent tetrabenazine (TBZ) induced ptosis in mice.; conditions: ip
Mus musculus [4] = species on record: Mus musculus; assay: Antidepressant activity by injecting compound perorally and measuring the ability to prevent tetrabenazine (TBZ) induced ptosis in mice.

SMILES	inhibition in vivo at 20 mg/kg (Mus musculus [1]) [%]	ED50 (Mus musculus [2]) [mg/kg]	ED50 (Mus musculus [3]) [mg/kg]	ED50 (Mus musculus [4]) [mg/kg]
CN1CCC2(CC1)CN1c3ccccc3N=Cc3cccc2c31	20	–	–	–
CC1=Nc2ccccc2N2CC3(CCN(C)CC3)c3cccc1c32.Cl.Cl	50	4.7	–	–
CC1Nc2ccccc2N2CC3(CCN(C)CC3)c3cccc1c32.Cl.Cl (stereo not drawn)	20	9.73	–	–
CN1CCC2(CC1)CN(c1ccccc1N)c1ccccc12	–	11.6	4	1.9
